Measured values as given in patent US11034650B2, “Compounds useful for treating a Mannheimia haemolytica or Histophilus somni infection” (Intervet Inc., priority 2016, dated 2021).
≈ marks a conversion by molar mass, not a printed value.

Tests used:
Format in all cases: cell-based
[1] = system: Mannheimia haemolytica MH 6374 (ATCC 33396, reference strain); assay: MIC, broth-microdilution (CLSI VET01-A4), strain MH 6374; conditions: Mannheimia haemolytica strain MH 6374, broth-microdilution; unit assumed
Experimental: (§1) For example, representative compounds were tested against ***, Mannheimia haemolytica and Pasteurella multocida, using the conventional broth-dilution assay.
(§2) The Minimum inhibitory concentrations (MIC) of compounds according to the invention for a number of veterinary bacterial pathogens were determined by the broth-microdilution method according to CLSI document VET01-A4.
(§3) Microdilution trays containing a doubling dilution series of the test compound were used for the tests. The MIC results were interpreted according to the CLSI documents VET01-S3. The lowest concentration of compound at which no visible growth (i.e. no turbidity) detected by the unaided eye was recorded as the MIC.

[2] = system: Mannheimia haemolytica MH 10720 (154, BRD field isolate); assay: MIC, broth-microdilution (CLSI VET01-A4), strain MH 10720; conditions: Mannheimia haemolytica strain MH 10720, broth-microdilution; unit assumed
Experimental: as §1, §2, §3

[3] = system: Pasteurella multocida PM 10775 (080130003051, BRD field isolate); assay: MIC, broth-microdilution (CLSI VET01-A4), strain PM 10775; conditions: Pasteurella multocida strain PM 10775, broth-microdilution; unit assumed
Experimental: as §1, §2, §3

[4] = system: Mannheimia haemolytica MH 12587 (1071, BRD field isolate, macrolide-resistance: erm+, E+); assay: MIC, broth-microdilution (CLSI VET01-A4), strain MH 12587; conditions: Mannheimia haemolytica strain MH 12587, broth-microdilution; unit assumed
Experimental: as §1, §2, §3

[5] = system: Mannheimia haemolytica MH 6357 (M7/2, reference strain, cattle infection strain); assay: MIC, broth-microdilution (CLSI VET01-A4), strain MH 6357; conditions: Mannheimia haemolytica strain MH 6357, broth-microdilution; unit assumed
Experimental: as §1, §2, §3

[6] = system: Pasteurella multocida PM 12080 (IV102277-0093, BRD field isolate); assay: MIC, broth-microdilution (CLSI VET01-A4), strain PM 12080; conditions: Pasteurella multocida strain PM 12080, broth-microdilution; unit assumed
Experimental: as §1, §2, §3

[7] = system: Mannheimia haemolytica MH 13093 (XB0472-6014.1, BRD field isolate); assay: MIC, broth-microdilution (CLSI VET01-A4), strain MH 13093; conditions: Mannheimia haemolytica strain MH 13093, broth-microdilution; unit assumed
Experimental: as §1, §2, §3

[8] = system: Mannheimia haemolytica MH 13065 (XB0446-6003.9, BRD field isolate); assay: MIC, broth-microdilution (CLSI VET01-A4), strain MH 13065; conditions: Mannheimia haemolytica strain MH 13065, broth-microdilution; unit assumed
Experimental: as §1, §2, §3

[9] = system: Pasteurella multocida PM 6267 (P 2225 (L386), reference strain, mouse infection strain); assay: MIC, broth-microdilution (CLSI VET01-A4), strain PM 6267; conditions: Pasteurella multocida strain PM 6267, broth-microdilution; unit assumed
Experimental: as §1, §2, §3

SMILES | MIC PM 10775 [3] [µg/mL] | MIC PM 12080 [6] [µg/mL] | MIC PM 6267 [9] [µg/mL] | MIC MH 6374 [1] [µg/mL] | MIC MH 10720 [2] [µg/mL] | MIC MH 12587 [4] [µg/mL] | MIC MH 6357 [5] [µg/mL] | MIC MH 13093 [7] [µg/mL] | MIC MH 13065 [8] [µg/mL]
CC[C@H](C)[C@H](NC(=O)c1ccc(C#Cc2ccc(CNCC(C)(C)C)cc2)cc1)C(=O)NO [Compound 114] | ≤ 0.1 | 0.8 (≈ 1.78 µM) | 0.2 (≈ 0.445 µM) | 12.5 (≈ 27.8 µM) | 1.6 (≈ 3.56 µM) | 12.5 (≈ 27.8 µM) | 6.3 (≈ 14 µM) | 6.3 (≈ 14 µM) | 6.3 (≈ 14 µM)
CC(C)[C@H](NC(=O)c1ccc(C#Cc2cccc(CN3CCOCC3)c2)cc1)C(=O)NO [Compound 32] | 0.4 (≈ 0.918 µM) | 3.1 (≈ 7.12 µM) | 1.6 (≈ 3.67 µM) | 6.3 (≈ 14.5 µM) | 3.1 (≈ 7.12 µM) | 12.5 (≈ 28.7 µM) | 6.3 (≈ 14.5 µM) | 6.3 (≈ 14.5 µM) | 6.3 (≈ 14.5 µM)
COCCNCc1ccc(C#Cc2ccc(C(=O)N[C@@H](CO)C(=O)NO)cc2)cc1 [Compound 74] | ≤ 0.1 | 3.1 (≈ 7.53 µM) | 0.8 (≈ 1.94 µM) | 3.1 (≈ 7.53 µM) | 3.1 (≈ 7.53 µM) | 12.5 (≈ 30.4 µM) | 3.1 (≈ 7.53 µM) | 12.5 (≈ 30.4 µM) | 6.3 (≈ 15.3 µM)
CC[C@H](C)[C@H](NC(=O)c1ccc(C#Cc2ccc(CNCc3ccc(Cl)cc3)cc2)cc1)C(=O)NO [Compound 128] | 0.4 (≈ 0.794 µM) | 3.1 (≈ 6.15 µM) | 3.1 (≈ 6.15 µM) | 3.1 (≈ 6.15 µM) | 0.8 (≈ 1.59 µM) | 12.5 (≈ 24.8 µM) | 3.1 (≈ 6.15 µM) | 6.3 (≈ 12.5 µM) | 3.1 (≈ 6.15 µM)
C=CCNCc1cccc(C#Cc2ccc(C(=O)N[C@H](C(=O)NO)C(C)C)cc2)c1 [Compound 26] | 0.8 (≈ 1.97 µM) | 6.3 (≈ 15.5 µM) | 3.1 (≈ 7.64 µM) | 6.3 (≈ 15.5 µM) | 3.1 (≈ 7.64 µM) | 25 (≈ 61.7 µM) | 12.5 (≈ 30.8 µM) | 12.5 (≈ 30.8 µM) | 12.5 (≈ 30.8 µM)

Second part, led by results:

MIC PM 10775 [3] [µg/mL] | MIC PM 12080 [6] [µg/mL] | MIC PM 6267 [9] [µg/mL] | SMILES | MIC MH 6374 [1] [µg/mL] | MIC MH 10720 [2] [µg/mL] | MIC MH 12587 [4] [µg/mL] | MIC MH 6357 [5] [µg/mL] | MIC MH 13093 [7] [µg/mL] | MIC MH 13065 [8] [µg/mL]
≤ 0.1 | 1.6 (≈ 3.39 µM) | 0.4 (≈ 0.848 µM) | Cc1ccc(CNCc2ccc(C#Cc3ccc(C(=O)N[C@@H](CO)C(=O)NO)cc3)cc2)cc1C [Compound 91] | 3.1 (≈ 6.57 µM) | 1.6 (≈ 3.39 µM) | 12.5 (≈ 26.5 µM) | 6.3 (≈ 13.4 µM) | 12.5 (≈ 26.5 µM) | 6.3 (≈ 13.4 µM)
≤ 0.1 | 0.8 (≈ 1.7 µM) | 0.4 (≈ 0.852 µM) | CC[C@H](C)[C@H](NC(=O)c1ccc(C#Cc2ccc(CNCc3ccccc3)cc2)cc1)C(=O)NO [Compound 126] | 1.6 (≈ 3.41 µM) | 0.4 (≈ 0.852 µM) | 1.6 (≈ 3.41 µM) | 3.1 (≈ 6.6 µM) | 1.6 (≈ 3.41 µM) | 1.6 (≈ 3.41 µM)
≤ 0.1 | 0.8 (≈ 1.57 µM) | 0.8 (≈ 1.57 µM) | CC(C)[C@H](NC(=O)c1ccc(C#Cc2ccc(CN3CCN(c4ccccc4)CC3)cc2)cc1)C(=O)NO [Compound 135] | 6.3 (≈ 12.3 µM) | 0.8 (≈ 1.57 µM) | 1 (≈ 1.96 µM) | 3.1 (≈ 6.07 µM) | 25 (≈ 49 µM) | 25 (≈ 49 µM)
≤ 0.1 | ≤ 0.1 | ≤ 0.1 | CC[C@H](C)[C@H](NC(=O)c1ccc(C#Cc2ccc(CNCC#N)cc2)cc1)C(=O)NO [Compound 192] | 1.6 (≈ 3.82 µM) | 0.2 (≈ 0.478 µM) | 3.1 (≈ 7.41 µM) | 0.8 (≈ 1.91 µM) | 0.8 (≈ 1.91 µM) | 0.8 (≈ 1.91 µM)
0.4 (≈ 0.824 µM) | 3.1 (≈ 6.38 µM) | 3.1 (≈ 6.38 µM) | COc1ccc(CNCc2cccc(C#Cc3ccc(C(=O)N[C@H](C(=O)NO)C(C)C)cc3)c2)cc1 [Compound 43] | 6.3 (≈ 13 µM) | 1.6 (≈ 3.3 µM) | 12.5 (≈ 25.7 µM) | 6.3 (≈ 13 µM) | 12.5 (≈ 25.7 µM) | 6.3 (≈ 13 µM)
≤ 0.1 | 0.4 (≈ 1.02 µM) | 0.2 (≈ 0.508 µM) | O=C(N[C@@H](CO)C(=O)NO)c1ccc(C#Cc2ccc(CNC3CC3)cc2)cc1 [Compound 71] | 0.8 (≈ 2.03 µM) | 0.4 (≈ 1.02 µM) | 1.6 (≈ 4.07 µM) | 1.6 (≈ 4.07 µM) | 3.1 (≈ 7.88 µM) | 0.8 (≈ 2.03 µM)
